Reference: patent US20260337125A1, “RADIOLABELED TYROSINE DERIVATIVE AND APPLICATION THEREOF” (Osaka University, priority 2022, published 2026)

Experiments:
[1] = tested on: PANC1; assay: Cellular uptake test (Using PANC1); type: cell-based, human
Procedure: • Cells to be used: PANC1 • Culture medium to be used: D-MEM (containing 10% FBS, 1% P/S)
(§1) Two days before a test day, a cell suspension was prepared in such a manner that the concentration of predetermined cells was 1×10^5 cells/mL in the same manner as in Test Example 1. The cell suspension was seeded in a 24-well multiculture plate at a volume of 0.5 mL per well. On the day of the test, cultures were confirmed to be subconfluent (which refers to a state where 70-80% of the well is covered in density). The cells were washed twice with warmed PBS(-) Buffer (166-23555, FUJIFILM Wako Pure Chemical Corporation), the culture medium was replaced with HBSS(-) Buffer (085-09355, FUJIFILM Wako Pure Chemical Corporation), and the plate was left to stand in an incubator (MINIcell-35, WakenBtech Co., Ltd) until an RI addition test.
(§2) ^211At-AAMT-OMe, ^211At-AAMT-OEt, ^211At-AAMT-OPr, or ^211At-AAMT was added to the prepared cells at 10 μL/well. BCH (LAT1 inhibitor, 20 mM) or unlabeled AMT (α-methyl tyrosine, 1 μg/mL) was previously (15 minutes before) added ([…]). The cells were cultured (CO2 5%, 37 °C), and after 30 minutes, the liquid was removed by suction using an aspirator. The cells were washed twice with PBS(-). The cells were lysed by adding 0.1N NaOH to obtain a lysate, and the radioactivity of the lysate was measured using a γ counter. After the radioactivity measurement, the lysate was loaded into a 96-well plate at a volume of 10 μL per well, the protein amount was measured by the BCA method, and the number of cells was corrected based on the protein amount. Absorbance was measured by MultiScanFC (Thermo Fisher). The uptake level of ^211At-AAMT-OMe, ^211At-AAMT-OEt, ^211-At-AAMT-OPr, or ^211At-AAMT into the cells (number of radioactivity counts/protein amount) was calculated.

[2] = tested on: human pancreatic cancer cell line (PANC1); assay: Imaging of mice subcutaneously transplanted with human pancreatic cancer cell line PANC1; type: in vivo, human (PANC1) in Balb/c-nu/nu mice; conditions: 2 hours after administration, 0.5 MBq/0.2 mL per mouse, tail vein
From the text: Immunodeficient mice (Balb/c-nu/nu, 5-week-old, male) were habituated for 1 week and then subcutaneously transplanted with a human pancreatic cancer cell line (PANC1, 1×10^7 cells/mouse). After the transplantation, the mice were observed over time until tumor reached a size large enough for imaging (about 1000 mm^3). […] Two hours after administration, the mice were anesthetized by isoflurane inhalation, and planar images were taken using a γ camera (E-cam, Siemens).

[3] = target: HEK293-hLAT1 (Homo sapiens, UniProt Q01650); assay: Cellular uptake test (Using HEK293); type: cell-based
HEK293-hLAT1, sequence (Q01650 whole entry): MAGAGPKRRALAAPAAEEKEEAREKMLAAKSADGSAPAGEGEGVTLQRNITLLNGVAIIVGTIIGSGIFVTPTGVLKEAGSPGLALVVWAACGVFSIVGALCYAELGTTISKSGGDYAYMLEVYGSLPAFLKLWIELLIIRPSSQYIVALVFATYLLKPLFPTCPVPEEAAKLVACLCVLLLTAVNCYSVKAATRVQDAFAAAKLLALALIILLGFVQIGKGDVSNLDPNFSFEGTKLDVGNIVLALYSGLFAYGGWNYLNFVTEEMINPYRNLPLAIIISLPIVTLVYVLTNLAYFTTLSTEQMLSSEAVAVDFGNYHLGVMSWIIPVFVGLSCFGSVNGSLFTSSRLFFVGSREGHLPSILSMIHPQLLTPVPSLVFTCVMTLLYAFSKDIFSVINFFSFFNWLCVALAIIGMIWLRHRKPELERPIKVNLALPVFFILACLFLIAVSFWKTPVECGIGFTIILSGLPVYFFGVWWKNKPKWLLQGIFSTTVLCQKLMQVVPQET
HEK293-hLAT1, sequence (P08195 102-630 partner): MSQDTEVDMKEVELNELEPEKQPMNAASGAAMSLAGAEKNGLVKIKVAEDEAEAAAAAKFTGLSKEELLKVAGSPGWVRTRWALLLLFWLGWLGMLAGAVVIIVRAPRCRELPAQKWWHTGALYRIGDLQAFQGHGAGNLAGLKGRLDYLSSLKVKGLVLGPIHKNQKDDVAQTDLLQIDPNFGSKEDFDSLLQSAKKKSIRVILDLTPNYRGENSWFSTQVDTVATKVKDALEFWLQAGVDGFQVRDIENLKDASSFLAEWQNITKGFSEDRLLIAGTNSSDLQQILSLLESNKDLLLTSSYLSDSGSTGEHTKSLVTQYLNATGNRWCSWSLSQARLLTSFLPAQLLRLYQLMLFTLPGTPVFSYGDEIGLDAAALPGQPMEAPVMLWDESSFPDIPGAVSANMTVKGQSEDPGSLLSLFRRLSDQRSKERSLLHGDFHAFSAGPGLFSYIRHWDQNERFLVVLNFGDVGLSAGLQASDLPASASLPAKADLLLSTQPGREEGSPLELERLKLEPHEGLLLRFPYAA
Procedure: • Cells to be Used: HEK293-Mock, HEK293-hLAT1, HEK293-hLAT2 (HEK293: Human Embryonic Kidney cells 293) • Culture medium to be used: E-MEM (containing 10% FBS, 1% P/S, 1% NEAA)
as §1, with “cells/mL.” for “cells/mL in the same manner as in Test Example 1.”
as §2, with “^211At-AAMT-OMe” for “^211At-AAMT-OMe, ^211At-AAMT-OEt, ^211At-AAMT-OPr,”, “^211At-AAMT-OMe” for “^211At-AAMT-OMe, ^211At-AAMT-OEt, ^211-At-AAMT-OPr,”

[4] = tested on: Gem-resistant PANC1 (PANC1 Gem-r); conditions: in vivo
Procedure: (§3) Thirty days after administration, the mice were euthanized and tumor masses were isolated. After fat tissue and the like were trimmed off, the wet weights of the isolated tumor masses were measured to make a histogram.

[5] = tested on: CDDP-resistant A549 (A549 CDDP-r); conditions: A549 CDDP-r tumor weight 30 days after administration, 0.5 MBq/0.2 mL per mouse, tail vein
Procedure: as §3

[6] = tested on: human pancreatic cancer cell line (PANC1); type: in vivo, human (PANC1) in Balb/c-nu/nu mice; conditions: 1 MBq/0.2 mL per mouse, tail vein
From the text: The experiment was terminated 21 days after administration.

[7] = tested on: PANC1 tumor; assay: Measurement of accumulated amounts of 211At-labeled compounds in PANC1 tumor-bearing mice; type: in vivo, human (PANC1) in Balb/c-nu/nu mice
Procedure: (§4) Radiation doses before and after the administration were measured, and a difference between them was defined as an injected dose (ID). Ten minutes and one hour after administration, the mice were anesthetized by isoflurane inhalation, the tumors were isolated by autopsy in chronological order, and their radiation doses and weights were measured using a gamma counter (2480 Wizard^2, PerkinElmer) and a semimicro scale (Shimadzu Corporation, readability 10 μg), respectively. For comparison between accumulated amounts, accumulated amounts per unit amount (% ID/g) were calculated.
(§5) In Table 1, the amounts of the ^211At-labeled compounds accumulated in tumors of the PANC1 tumor-bearing models (% ID/g) are shown. It should be noted that in Table 1, “OMe” is ^211At-AAMT-OMe, “OEt” is ^211At-AAMT-OEt, “OPr” is ^211At-AAMT-OPr, and “OH” is ^211At-AAMT.

[8] = as above; type: in vivo, human (PANC1) in Balb/c-nu/nu mice; conditions: tumor, iv, 0.1 MBq/animal, 0.1 MBq/0.2 mL per mouse, tail vein, read-out: tumor accumulation
Procedure: as §4, §5

COc1ccc(C[C@](C)(N)C(=O)O)cc1[At] [^211At-AAMT-OMe, (S)-3-astato(^211At)-O-methyl-α-methyltyrosine]
uptake level into cells (number of radioactivity counts/protein amount) [1]: much superior in uptake level to ^211At-AAMT
uptake speed ([1]; PANC1 cells, uptake level immediately after addition): much superior also in uptake speed
accumulation in tumor site (planar γ camera image) [2]: accumulated in the tumor sites, with a larger amount of ^211At-AAMT-OMe remaining in the tumor
uptake level into cells (number of radioactivity counts/protein amount) ([3]; HEK293-hLAT1 cells (CTL), 30 minutes, 37 °C): strongly taken up into HEK293-hLAT1 cells (CTL), comparable to ^211At-AAMT
specificity of uptake ([3]; HEK293-hLAT1 cells, without and with BCH or AMT): specifically taken up into HEK293-hLAT1 cells
anti-tumor effect [4]: higher on Gem-resistant PANC1 (PANC1 Gem-r) than on PANC1
tumor growth inhibiting effect [4]: higher tumor growth inhibiting effect on the gemcitabine-resistant PANC1 cells
anti-tumor effect [5]: higher than that of ^211At-AAMT on CDDP-resistant A549
apparent toxicity ([6]; 21 days): apparent toxicity induced by their administration was not observed
lesions other than tumor at autopsy ([6]; 21 days): lesions other than tumor were not observed
mouse body weight ([6]; up to 21 days after administration): gently increased
accumulation in the tumor sites compared to 211At-AAMT ([7]; 10 minutes and 1 hour after administration, tail vein): more highly accumulated in the tumor sites than ^211At-AAMT
retention at tumor sites ([7]; compared to 211At-AAMT): superior retention at tumor sites compared to ^211At-AAMT
tissue uptake at 10 min ([8]; 10 minutes after administration): 2.59 %ID/g
tissue uptake at 1 h ([8]; 1 hour after administration): 3.78 %ID/g
